# According to EP1151753B1, “PREVENTIVE AND THERAPEUTIC AGENTS FOR ARTERIOSCLEROSIS” (CCI CORPORATION, priority 1999, dated 2000):
# Test: Lipoprotein analysis, WHHL rabbit model
# Format: in vivo, WHHL type rabbits
# Conditions: WHHL rabbits
# Description: 1. Animal used and feeding conditions In the test, female and male WHHL type rabbits (SPF: Kitayama Labels K.K.) which were eight weeks old at the time of arrival at the laboratory were subjected to quarantine and domestication and visually inspected as to the general condition and, after the absence of abnormality was confirmed, put to use. The body weights at the time of starting administration (at the age of nine weeks) were in the range of 1.5 - 1.9 kg in the case of male rabbits and in the range of 1.4 - 1.8 kg in the case of female rabbits. Throughout the entire duration of the test, the animals were raised as accommodated one each in hanger cages of aluminum installed on a stainless steel rack inside a clean feeding chamber set at a temperature in the range of 20 - 26°, a relative humidity in the range of 40 - 70%, a number of ventilations in the range of 10 - 20 turns/hour, and an illumination time within the range of 12 hours (7.00 - 19:00). They were fed on a commercially available radioactively sterilized solid feed (made by Oriental Kobo K.K. and sold under the product code of "RC4") and they were left freely drinking the tap water delivered by an automatic water supplying device. 2. Setting dosage and method of administration The dosage of TMG was set at 800 mg/head/day. The TMG was solved in reagent grade ethanol. The produced solution was sprayed on the feed and the wet feed was left drying in the air. A mixed feed was prepared so as to contain 800 mg of TMG per 100 g of the feed. The mixed feed was given to the rabbits every morning at a rate of 100 g/day per head for 27 weeks for the sake of attaining oral consumption of the TMG. The feed for the control group was obtained by spraying ethanol alone on a feed and air-drying the wet feed. It was given to the rabbits of the control group at a rate of 100 g/day per head for 27 weeks. 3. […] The blood was centrifuged to separate blood serum and the blood serum was analyzed for the items shown in Table 5 by the use of an automatic analyzer (made by Hitachi. Ltd. and sold under the product code of "736-20"). The body weight of each rabbit was measured at the rate of once a week throughout the entire duration of the administration.
# 5. […] The blood serum was ultracentrifuged by Hatch and Lees method (Hatch, F. T., and Lees, R. S. (1968) Advan, Lipid Res. 6, 1-68) using a centrifuge (the rotor; Beckman 70.1 Ti) made by Beckman and sold under the product code of "L-70") to separate low specific gravity lipoprotein (1.006 < d < 1.063), with the cholesterol amount of the LDL fraction determined by the cholesterol oxidase DASO method and the amount of HDL-cholesterol determined by subjecting the blood serum to the phospho-tungstic acid magnesium salt precipitation method. […]
# [1] = TMG 800 mg/head/day in feed, 26th week of administration, average ± SE
compound,measurement,setting,value
"Cc1c(C)c2c(c(C)c1O)CCC(C)(C[C@H]1O[C@H](CO)[C@@H](O)[C@H](O)[C@H]1O)O2 (stereo partly drawn) [TMG, 2-(α-D-glucopyranosyl)methyl-2,5,7,8-tetramethyl chroman-6-ol]",activity of lowering the HDL-cholesterol,TMG 800 mg/head/day for 27 weeks,no activity
same,HDL-CHO,[1],5 ± 1 mg/dL
same,LDL-CHO,[1],746 ± 29 mg/dL
same,LDL-TMG,"amount of TMG in LDL fraction by HPLC, TMG 800 mg/head/day in feed, 26th week of administration",not detected
